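The compound was tested at five concentrations on cells cultured in 96-well plates, with a 48-hour exposure period. At the GI50, growth is halved.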 Calls of active or inactive are those of the source. No stated cut-off is given here; in the data, active = GI50 up to about 1.1 µM and inactive = higher. Bounds are passed on as bounds.

Test systems include MOLT-4; TK-10; NCI-H23; SF-268; HCT-116; UACC-62; SN12C; U-251; SR; RXF 393; SK-MEL-5; CCRF-CEM; MDA-N; OVCAR-5; LOX IMVI; NCI-H226; EKVX; OVCAR-3; SF-539; Hs-578T.
What all share (test): growth of human tumour cells (NCI), 48 h

With `CC(=O)O/C=C1/C[C@H]2[C@@H]3CCC4CC(C(C)=O)CC[C@]4(C)[C@H]3CC[C@]2(C)C1=O` (some centres not stated), the GI50 was 39.1 µM (inactive) in the assay with MOLT-4; > 100 µM (inactive) with TK-10; 81.7 µM (inactive) with NCI-H23; > 100 µM (inactive) in the assay with SF-268; 29.6 µM (inactive) with HCT-116; > 100 µM (inactive) in the assay on UACC-62. Further, the GI50 in the assay on SN12C was > 100 µM (inactive); with U-251, 40.6 µM (inactive); in the assay with SR, 44.1 µM (inactive); in the assay with RXF 393, > 100 µM (inactive); in the assay with SK-MEL-5, 47.2 µM (inactive); in the assay on CCRF-CEM, 29.1 µM (inactive). Also, the GI50 was 88.1 µM (inactive) in the assay on MDA-N; > 100 µM (inactive) with OVCAR-5; 33.3 µM (inactive) in the assay with LOX IMVI; > 100 µM (inactive) with NCI-H226; > 100 µM (inactive) in the assay with EKVX; 33.2 µM (inactive) in the assay on OVCAR-3.

For `CC(C)(C)OC(=O)N/N=C(/N)c1ccccc1`, the GI50 with MOLT-4, in the assay on TK-10, in the assay with NCI-H23, in the assay with SF-268, with HCT-116 and in the assay with UACC-62 was > 100 µM (inactive) throughout. Further, the GI50 in the assay with SN12C, with U-251, with RXF 393, in the assay with SK-MEL-5, with CCRF-CEM and in the assay on MDA-N was > 100 µM (inactive) in each case. Moreover, the GI50 in the assay on OVCAR-5, with LOX IMVI, with NCI-H226, in the assay on EKVX, with SF-539 and in the assay on OVCAR-3 was > 100 µM (inactive) throughout.

On to `Cc1ccc(NC(=O)C(=O)CC(=O)c2c(C)[n+]([O-])c3ccccc3[n+]2[O-])cc1`, for which the GI50 in the assay on MOLT-4 is 23.4 µM (inactive); in the assay on TK-10, 91 µM (inactive); in the assay on NCI-H23 it was 20.3 µM (inactive); with SF-268, 35.8 µM (inactive); in the assay on HCT-116 it was 18.6 µM (inactive); in the assay on UACC-62, 17.7 µM (inactive). Moreover, the GI50 in the assay on SN12C was 36.5 µM (inactive); with U-251, 31 µM (inactive); in the assay with SR it was 20.5 µM (inactive); in the assay on RXF 393 it was 54.8 µM (inactive); in the assay on SK-MEL-5, 26.8 µM (inactive); with CCRF-CEM, 20.1 µM (inactive). The GI50 was 40.6 µM (inactive) with OVCAR-5; 20 µM (inactive) in the assay on LOX IMVI; > 100 µM (inactive) in the assay with NCI-H226; 16.9 µM (inactive) in the assay on EKVX; 29.2 µM (inactive) with SF-539; 12 µM (inactive) with OVCAR-3.

For `COc1ccc(C(Cc2ccccc2)C2NC(=S)NC2=O)cc1` (configuration not stated), the GI50 in the assay on MOLT-4, with TK-10, in the assay on NCI-H23, in the assay on SF-268, in the assay on HCT-116 and with SN12C was > 25 µM (inactive) throughout. Moreover, the GI50 in the assay on U-251 was > 25 µM (inactive); in the assay with SR, 9.27 µM (inactive); in the assay with RXF 393, > 25 µM (inactive); in the assay with SK-MEL-5, > 25 µM (inactive); in the assay on Hs-578T it was > 25 µM (inactive); in the assay with CCRF-CEM it was > 25 µM (inactive). The GI50 in the assay with OVCAR-5, with LOX IMVI, in the assay on NCI-H226, in the assay on EKVX, with SF-539 and in the assay with OVCAR-3 was > 25 µM (inactive) in each case.

As for `O=C(/N=N/c1cccc(Cl)c1)NNc1cccc(Cl)c1`, the GI50 is 10.9 µM (inactive) in the assay on MOLT-4; 25.1 µM (inactive) with TK-10; 26.2 µM (inactive) in the assay on NCI-H23; 24.7 µM (inactive) in the assay on SF-268; 8.22 µM (inactive) in the assay with HCT-116; 9.25 µM (inactive) in the assay on UACC-62. Also, the GI50 was 11.7 µM (inactive) with SN12C; 18.7 µM (inactive) in the assay on U-251; 13.8 µM (inactive) with SR; 17.9 µM (inactive) with SK-MEL-5; 18.2 µM (inactive) in the assay on CCRF-CEM; 13.1 µM (inactive) in the assay on MDA-N. Moreover, the GI50 with OVCAR-5 was 15.8 µM (inactive); in the assay with LOX IMVI it was 12.9 µM (inactive); with NCI-H226, 23.9 µM (inactive); with OVCAR-3 it was 15 µM (inactive).

`O=C(O)C12C3CCCC1C2CC3` (configuration not stated): the GI50 in the assay on MOLT-4, in the assay with TK-10, in the assay with NCI-H23, with SF-268, with HCT-116 and with UACC-62 was > 100 µM (inactive) throughout. Besides, the GI50 in the assay with SN12C, with U-251, in the assay on SR, in the assay with RXF 393, in the assay on SK-MEL-5 and in the assay with CCRF-CEM was > 100 µM (inactive) each time. The GI50 in the assay on OVCAR-5, in the assay on LOX IMVI, with NCI-H226, with EKVX, in the assay with SF-539 and in the assay with OVCAR-3 was > 100 µM (inactive) in each case.

Consider `CCCN(CCC)c1c([N+](=O)[O-])cc(C(=O)N(CC)CC)cc1[N+](=O)[O-]`, for which the GI50 with MOLT-4 was 16.4 µM (inactive); with TK-10, 29 µM (inactive); with NCI-H23, 7.55 µM (inactive); with SF-268, 17.6 µM (inactive); with HCT-116 it was 13.6 µM (inactive); with UACC-62, 17.7 µM (inactive). The GI50 with SN12C is 22.4 µM (inactive); in the assay on U-251, 15.5 µM (inactive); in the assay on SR it was 14.8 µM (inactive); with RXF 393, 17.4 µM (inactive); with SK-MEL-5 it was 13.3 µM (inactive); in the assay with CCRF-CEM, 20.8 µM (inactive). Further, the GI50 in the assay with OVCAR-5 is 30.9 µM (inactive); in the assay on LOX IMVI, 16 µM (inactive); in the assay on NCI-H226, 23 µM (inactive); in the assay with EKVX, 18.6 µM (inactive); with SF-539, 24.7 µM (inactive); with OVCAR-3 it was 14.5 µM (inactive).

Consider `O=C1c2cc(Br)ccc2-c2ccc3c4ccc5c6c(ccc(c7ccc1c2c73)c64)C(=O)c1cc(Br)ccc1-5`, for which the GI50 in the assay on TK-10, in the assay with NCI-H23, in the assay with SF-268, with HCT-116, with UACC-62 and with SN12C was > 100 µM (inactive) in each case. For the same compound, the GI50 in the assay on U-251 is > 100 µM (inactive); with SR, 2.28 µM (inactive); in the assay with RXF 393 it was > 100 µM (inactive); with SK-MEL-5, > 100 µM (inactive); in the assay on Hs-578T, > 100 µM (inactive); in the assay with CCRF-CEM, 0.787 µM (active). The GI50 with OVCAR-5, in the assay on LOX IMVI, in the assay with NCI-H226, in the assay with EKVX, in the assay with SF-539 and with OVCAR-3 was > 100 µM (inactive) each time.

Source of the values: ChEMBL document CHEMBL1201862, “PubChem BioAssay data set” (2004).
